Results published in patent US20090318381A1, “Halogenated alkyl di-and trisaccharides, pharmaceutical formulations, diagnostic kits and methods of treatment” (priority 2006, published 2009).

Tests used:
Staphylococcus aureus = test: Antimicrobial testing, time-kill log reduction against S. aureus; type: cell-based; conditions: for Concentration (CFU/mL): 5 ml of 1% Compound 3 solution + 20 ml PBS pH 7.2; for Log Reduction: log inoculum verification minus sample log recovery
Protocol: (§1) The preferred embodiment was tested for antimicrobial activity using the following procedure.
(§2) A 1% solution of Compound 3 was prepared in DPBS (Dulbecco's phosphate buffered saline). A 25 ml mixture of the 1% Compound 3 and PBS (phosphate buffered saline, pH 7.2 was prepared by mixing 5 ml of the 1% Compound 3 solution and 20 ml of the PBS.
(§3) A 10 ml aliquot of the above mixture was placed into each of two sterile test tubes. One test tube was inoculated with 0.1 ml of S. aureus and the other with 0.1 ml of P. aeruginosa, such that there was a final concentration of 10^6 colony-forming units (CFU)/0.1 mls.
(§4) A various time points, 1.0 ml of each inoculated test sample were removed, diluted 10× with 0.45% saline and plated on trypticase soy agar (TSA) plates.
(§5) Samples of PBS was treated in the same manner. At time points 5 mins and 60 mins, two 1 ml samples were taken and diluted 1 × and one spiked with a 0.1 ml aliquot of the S. aureus and the other spiked with 0.1 ml of the P aeruginosa.
(§6) The plates were incubated at 30-35° C. for not less than 24 hours. Concentration of CFU in the samples taken at each time point were enumerated by standard methods. The log reduction was calculated for each time period and organism. The log reduction was calculated using the formula: Log reduction=Log inoculums verification−sample log recovery.

Pseudomonas aeruginosa = test: Antimicrobial testing, time-kill log reduction against P. aeruginosa; type: cell-based; conditions: for Concentration (CFU/mL): 5 ml of 1% Compound 3 solution + 20 ml PBS pH 7.2; for Log Reduction: log inoculum verification minus sample log recovery
Protocol: as §1, §2, §3, §4, §5, §6

[1] = system: Adenovirus Infection of Bladder Epithelium; conditions: pretreatment agent; Ramesh et al., Molecular Therapy 2004; cited from earlier work
Listeria Monocytogenes = conditions: in conjunction with certain organic acids; J. Applied Bacteriol. 1996; cited from earlier work
[2] = antimicrobial if greater than 5 log reduction

Compound	Concentration (CFU/mL) (Staphylococcus aureus; 5 minutes)	Log Reduction (Staphylococcus aureus; 5 minutes)	Concentration (CFU/mL) (Staphylococcus aureus; 15 minutes)	Log Reduction (Staphylococcus aureus; 15 minutes)	Concentration (CFU/mL) (Staphylococcus aureus; 30 minutes)	Log Reduction (Staphylococcus aureus; 30 minutes)	Concentration (CFU/mL) (Staphylococcus aureus; 60 minutes)	Log Reduction (Staphylococcus aureus; 60 minutes)	antimicrobial effect (Staphylococcus aureus; [2])	Concentration (CFU/mL) (Pseudomonas aeruginosa; 5 minutes)	Log Reduction (Pseudomonas aeruginosa; 5 minutes)	Concentration (CFU/mL) (Pseudomonas aeruginosa; 15 minutes)	Log Reduction (Pseudomonas aeruginosa; 15 minutes)	Concentration (CFU/mL) (Pseudomonas aeruginosa; 30 minutes)	Log Reduction (Pseudomonas aeruginosa; 30 minutes)	Concentration (CFU/mL) (Pseudomonas aeruginosa; 60 minutes)	antimicrobial effect (Pseudomonas aeruginosa; [2])	increasing the effectiveness of gene and oncolytic virus therapy [1]	anti-microbial against Listeria Monocytogenes (Listeria Monocytogenes)
CCCCCCCCCCCC(=O)OCC1O[C@H](O[C@@]2(CCl)O[C@H](CCl)C(O)C2O)C(O)C(O)[C@H]1Cl (stereo in doubt) [Compound 3, 1′,6′-Dichloro-1′,6′-dideoxy-β-D-fructofuranosyl-4-chloro-4-deoxy-6-O-monododecanoate-α-D-galactopyranoside]	6.9 × 10^5 CFU/mL	4	4.3 × 10^4 CFU/mL	5.2	1.41 × 10^4 CFU/mL	5.7	2.9 × 10^3 CFU/mL	6.3	has antimicrobial effect	1.53 × 10^6 CFU/mL	3.5	1.1 × 10^6 CFU/mL	3.7	1.21 × 10^6 CFU/mL	3.6	TNTC*	not		
sucrose monolaurate																		effective	effective anti-microbial
CCCCCCCCCCCCO[C@@H]1O[C@H](CO)[C@@H](O[C@H]2O[C@H](CO)[C@@H](O)[C@H](O)[C@H]2O)[C@H](O)[C@H]1O [dodecyl maltoside]																		effective	
